{"source": "patent US7638055B2", "about": "“Sludge quality” (Rhodia Operations, priority 2004, dated 2009)", "key": {"[1]": {"test_system": "protozoans and other higher organisms", "details": "2 and 4 mg/l/day Compound X, treated sludge relative to untreated", "text": "(§1) A series of semi-continuous chemostat reactors was constructed to simulate wastewater treatment processes.\n(§2) The central part of the equipment is the biological chemostat reactor 1. The reactor vessel 2 is made of glass, with an internal volume of 10 liters and is fitted with pH 3 and dissolved oxygen 4 sensors and an air sparge 5. This contains the sludge, which is, essentially, a mass of typical wastewater treatment microorganisms. The reactor operates at an ambient temperature (approximately 20° C.).\n(§3) Simulated wastewater 13 is contained in a separate vessel 6 and maintained at 4° C. to prevent microbial spoilage. It is transferred into the reactor via a supply line 7 and a peristaltic pump 8.\n(§4) A recirculating line 9 is provided on the reactor comprising a length of flexible silicone tubing and a peristaltic pump 10. The peristaltic pump extracts the sludge from the reactor into the recirculation line. The candidate water-soluble biocide is introduced into this line 9 through a needle 11, which is fed by a syringe pump 12. Using this system it is possible to achieve “flash mixing” which ensures rapid contact of the water-soluble biocide with the sludge microorganisms. […]\n(§5) Compound X was evaluated in the test. […] Two concentrations were evaluated: 2 and 4 milligrams per liter per day, as well as a control with no treatment by Compound X."}, "[2]": {"test_system": "filamentous bacteria in the sludge", "details": "2 and 4 mg/l/day Compound X, flash mixing, vs untreated control, 52 day experiment", "text": "as §1, §2, §3, §4, §5"}, "filamentous bacteria": {"test_system": "filamentous bacteria", "details": "for Observations (filamentous bacteria): sample 48 days after start up, magnification x220", "method": "Samples were taken from the semi-continuous reactors described in Example 1, 48 days after the start up of the trial.\nA sample of each of the Compound X concentrations tested in the reactors of Example 1 was evaluated in this test. Accordingly, samples with 2 and 4 milligrams per liter per day treatment of Compound X were tested, as well as a control with no treatment by Compound X.\nThe samples were observed through phase contrast microscope magnification×220."}}, "note": "Read-outs that look alike come from different tables or passages of the source."}
{"substance": "tetrakis(hydroxymethyl)phosphonium sulphate [Compound X]", "values": [{"measurement": "concentration of protozoans and other higher organisms in the sludge", "setting": "[1]", "value": "significantly higher concentration of protozoans and other higher organisms"}, {"measurement": "filamentous bacteria in the sludge", "setting": "[2]", "value": "substantially absent"}, {"measurement": "Observations (filamentous bacteria)", "setting": "filamentous bacteria; 2 mg/l/day", "value": "No filamentous bacteria present,"}, {"measurement": "Observations (filamentous bacteria)", "setting": "filamentous bacteria; 4 mg/l/day", "value": "No filamentous bacteria present,"}, {"measurement": "reduction of filamentous bacteria and sludge settling", "setting": "filamentous bacteria; two doses of 4 mg/l/day (4 mg/l dose on two consecutive days)", "value": "Reduction of filamentous bacteria and thus improved sludge settling"}, {"measurement": "level of filaments after treatment was stopped", "setting": "filamentous bacteria; two doses of 4 mg/l/day, without further treatment", "value": "remained low for more than one week"}]}
